Measurements: patent US10519147B2 (Merck Sharp & Dohme Corp., priority 2015, dated 2019)
pIC50: −log10 of the molar value.

How the values were obtained:
[1] = target: T1, human Nav1.7 (Homo sapiens, UniProt Q15858); experiment: IonWorks Quattro automated patch-clamp, inactivated state block of Nav1.7; assay type: cell-based; conditions: channels stably expressed in HEK 293 cells; double-pulse protocol, inactivated state block; read-out: potency for the Nav 1.7 sodium ion channel (IC50, as measured by IonWorks)
T1 construct: expressed in transfected cells; host or cells: HEK 293
T1 sequence (Q15858 whole entry): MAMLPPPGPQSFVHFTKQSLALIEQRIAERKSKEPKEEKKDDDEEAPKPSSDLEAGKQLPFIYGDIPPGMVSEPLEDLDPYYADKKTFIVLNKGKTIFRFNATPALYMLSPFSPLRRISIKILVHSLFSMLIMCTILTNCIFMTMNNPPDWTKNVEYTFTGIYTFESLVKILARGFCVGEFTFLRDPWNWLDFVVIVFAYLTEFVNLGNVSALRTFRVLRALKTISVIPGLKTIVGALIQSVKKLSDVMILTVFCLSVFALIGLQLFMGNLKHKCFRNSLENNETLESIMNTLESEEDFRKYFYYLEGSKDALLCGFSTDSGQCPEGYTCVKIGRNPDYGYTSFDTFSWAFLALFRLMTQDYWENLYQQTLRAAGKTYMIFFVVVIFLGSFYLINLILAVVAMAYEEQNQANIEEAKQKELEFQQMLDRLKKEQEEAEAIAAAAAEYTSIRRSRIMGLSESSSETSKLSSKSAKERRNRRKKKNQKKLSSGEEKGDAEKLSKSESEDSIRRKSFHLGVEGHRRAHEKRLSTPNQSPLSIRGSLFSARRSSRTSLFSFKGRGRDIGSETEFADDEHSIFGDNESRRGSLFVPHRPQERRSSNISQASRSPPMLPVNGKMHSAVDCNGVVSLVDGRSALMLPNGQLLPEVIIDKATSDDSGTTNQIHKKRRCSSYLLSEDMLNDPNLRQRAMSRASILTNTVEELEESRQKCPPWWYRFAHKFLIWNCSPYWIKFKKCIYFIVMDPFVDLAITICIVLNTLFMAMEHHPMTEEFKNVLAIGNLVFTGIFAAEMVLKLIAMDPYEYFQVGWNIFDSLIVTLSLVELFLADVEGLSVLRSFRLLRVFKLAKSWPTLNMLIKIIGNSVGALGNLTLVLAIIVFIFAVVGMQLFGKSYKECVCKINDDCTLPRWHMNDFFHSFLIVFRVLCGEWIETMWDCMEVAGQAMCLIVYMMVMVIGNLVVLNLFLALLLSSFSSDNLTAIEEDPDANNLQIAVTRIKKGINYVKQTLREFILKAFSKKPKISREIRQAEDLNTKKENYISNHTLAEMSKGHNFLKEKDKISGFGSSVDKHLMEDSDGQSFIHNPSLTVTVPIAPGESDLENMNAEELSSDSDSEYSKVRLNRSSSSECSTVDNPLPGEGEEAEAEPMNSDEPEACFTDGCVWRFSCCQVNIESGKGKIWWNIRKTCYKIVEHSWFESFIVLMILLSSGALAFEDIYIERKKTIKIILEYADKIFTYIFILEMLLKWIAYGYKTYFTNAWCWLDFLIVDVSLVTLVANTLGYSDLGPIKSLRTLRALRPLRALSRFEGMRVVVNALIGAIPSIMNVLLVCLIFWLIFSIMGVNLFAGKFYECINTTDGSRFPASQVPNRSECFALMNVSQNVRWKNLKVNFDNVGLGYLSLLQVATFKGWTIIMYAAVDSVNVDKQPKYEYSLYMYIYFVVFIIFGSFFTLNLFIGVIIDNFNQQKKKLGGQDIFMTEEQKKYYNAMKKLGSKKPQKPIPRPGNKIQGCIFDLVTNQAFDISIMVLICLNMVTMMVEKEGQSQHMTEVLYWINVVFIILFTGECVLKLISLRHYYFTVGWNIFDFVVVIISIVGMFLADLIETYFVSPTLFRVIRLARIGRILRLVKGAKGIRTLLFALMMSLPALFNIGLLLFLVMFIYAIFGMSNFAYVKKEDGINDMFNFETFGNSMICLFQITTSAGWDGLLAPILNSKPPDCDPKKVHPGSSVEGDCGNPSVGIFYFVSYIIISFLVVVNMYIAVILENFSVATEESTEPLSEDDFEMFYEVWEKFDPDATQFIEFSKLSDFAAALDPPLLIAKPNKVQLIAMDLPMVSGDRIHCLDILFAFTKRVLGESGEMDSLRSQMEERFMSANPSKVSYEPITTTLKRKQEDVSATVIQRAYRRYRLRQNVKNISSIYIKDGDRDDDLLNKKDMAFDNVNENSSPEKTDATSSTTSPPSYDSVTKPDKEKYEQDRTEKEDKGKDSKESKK
Description: (§1) Compounds were tested on human Nav1.7 and Nav1.5 channels stably expressed in HEK 293 cells. […] Cells were sealed on a planar substrate using the Population Patch […] (PPC) technology. Electrical access was obtained using both nystatin and amphotericin. A double-pulse protocol was used for the determination of IC50 values for inactivated state block. Nav1.7 and Nav1.5 expressing cells were voltage clamped at −100 mV and −110 mV, respectively. A depolarizing prepulse to −10 mV (Nav1.7) or −30 mV (Nav1.5) for 1000 ms followed by a 10 ms repolarization to −100 mV (Nav1.7) or −110 mV (Nav1.5) was given to generate fractional channel inactivation of 50%, followed by a 10 ms test pulse to −10 mV (Nav1.7) or −30 mV (Nav1.5) to measure peak current in control conditions and after compound addition. The following recording solutions were used (mM). External: 150 NaCl, 2 CaCl2, 5 KCl, 1 Mg Cl2, 10 HEPES, 12 Dextrose; internal: 120 CsF, 30 CsCl, 10 EGTA, 5 HEPES, 5 NaF, 2 MgCl2.
(§2) For all electrophysiology experiments, offline analysis was used to determine percent inhibition as a function of drug concentration. IC50 values were determined by fitting to the Hill equation.

[2] = target: T2, human Nav1.5 (Homo sapiens, UniProt Q14524); experiment: IonWorks Quattro automated patch-clamp, Nav1.5 (selectivity against Nav1.7); assay type: cell-based; conditions: IonWorks measurement, HEK 293 cells, inactivated state block
T2 construct: expressed in transfected cells; host or cells: HEK 293
T2 sequence (Q14524 whole entry): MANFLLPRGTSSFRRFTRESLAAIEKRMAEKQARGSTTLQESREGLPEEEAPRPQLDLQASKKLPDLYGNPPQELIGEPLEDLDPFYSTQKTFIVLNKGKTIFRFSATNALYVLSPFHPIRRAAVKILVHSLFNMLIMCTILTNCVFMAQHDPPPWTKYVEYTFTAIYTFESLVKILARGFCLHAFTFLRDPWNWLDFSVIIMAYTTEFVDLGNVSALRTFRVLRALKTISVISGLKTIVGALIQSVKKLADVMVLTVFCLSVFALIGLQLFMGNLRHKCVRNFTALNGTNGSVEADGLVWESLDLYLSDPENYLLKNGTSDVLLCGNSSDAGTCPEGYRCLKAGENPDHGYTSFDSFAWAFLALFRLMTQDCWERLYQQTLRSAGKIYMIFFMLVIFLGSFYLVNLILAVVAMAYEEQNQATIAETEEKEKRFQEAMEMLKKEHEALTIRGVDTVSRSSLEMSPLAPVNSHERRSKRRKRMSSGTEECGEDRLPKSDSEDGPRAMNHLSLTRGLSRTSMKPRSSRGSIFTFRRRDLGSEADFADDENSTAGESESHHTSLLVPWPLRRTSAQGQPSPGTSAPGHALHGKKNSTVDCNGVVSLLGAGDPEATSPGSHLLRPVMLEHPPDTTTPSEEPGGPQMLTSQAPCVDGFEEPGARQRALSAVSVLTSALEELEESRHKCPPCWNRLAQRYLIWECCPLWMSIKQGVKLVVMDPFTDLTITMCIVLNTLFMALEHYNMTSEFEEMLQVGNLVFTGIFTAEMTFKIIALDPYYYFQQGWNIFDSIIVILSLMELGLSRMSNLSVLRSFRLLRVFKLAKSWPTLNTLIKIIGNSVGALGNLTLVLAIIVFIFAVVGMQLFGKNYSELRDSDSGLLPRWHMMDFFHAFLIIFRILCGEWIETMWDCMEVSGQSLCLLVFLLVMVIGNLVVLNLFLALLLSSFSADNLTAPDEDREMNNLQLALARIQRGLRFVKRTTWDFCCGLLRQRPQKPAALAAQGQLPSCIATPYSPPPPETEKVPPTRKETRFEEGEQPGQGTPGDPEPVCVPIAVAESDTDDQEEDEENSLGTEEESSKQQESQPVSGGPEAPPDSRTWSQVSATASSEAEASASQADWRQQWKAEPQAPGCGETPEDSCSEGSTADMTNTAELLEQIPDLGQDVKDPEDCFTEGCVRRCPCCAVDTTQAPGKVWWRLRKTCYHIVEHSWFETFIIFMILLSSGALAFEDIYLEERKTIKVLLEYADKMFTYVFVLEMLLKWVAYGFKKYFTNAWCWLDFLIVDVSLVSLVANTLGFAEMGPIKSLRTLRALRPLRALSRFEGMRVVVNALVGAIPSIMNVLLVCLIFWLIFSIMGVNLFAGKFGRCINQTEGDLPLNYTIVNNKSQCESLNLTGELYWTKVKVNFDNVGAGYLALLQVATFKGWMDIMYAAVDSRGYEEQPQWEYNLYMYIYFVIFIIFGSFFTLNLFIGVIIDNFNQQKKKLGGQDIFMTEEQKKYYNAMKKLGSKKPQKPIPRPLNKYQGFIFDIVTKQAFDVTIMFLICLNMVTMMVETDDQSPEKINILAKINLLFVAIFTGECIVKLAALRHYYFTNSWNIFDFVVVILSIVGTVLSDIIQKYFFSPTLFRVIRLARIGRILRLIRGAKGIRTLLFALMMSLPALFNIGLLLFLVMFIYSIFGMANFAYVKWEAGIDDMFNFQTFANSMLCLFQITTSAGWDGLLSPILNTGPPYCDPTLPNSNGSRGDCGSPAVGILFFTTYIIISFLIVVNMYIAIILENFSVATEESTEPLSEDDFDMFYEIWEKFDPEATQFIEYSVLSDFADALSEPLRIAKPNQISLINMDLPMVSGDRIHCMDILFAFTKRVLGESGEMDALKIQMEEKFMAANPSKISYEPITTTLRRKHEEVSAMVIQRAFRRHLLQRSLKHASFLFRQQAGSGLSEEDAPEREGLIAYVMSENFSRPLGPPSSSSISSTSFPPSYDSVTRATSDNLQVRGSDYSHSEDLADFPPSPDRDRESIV
Description: as §1, §2

NC1CCC1NCCCCNc1cc(F)c(S(=O)(=O)Nc2ncns2)cc1Cl (single isomer, unassigned) [Ex 16-82, 4-[4-[[(1S,2S) or (1R,2R)-2-aminocyclobutyl]amino]butylamino]-5-chloro-2-fluoro-N-(1,2,4-thiadiazol-5-yl) benzenesulfonamide]
pIC50 [1]: 8.48 | ratio of Nav 1.7 potency:Nav 1.5 potency [2]: > 10000

NC1CCC1NCCCCNc1cc(F)c(S(=O)(=O)Nc2ncns2)cc1Cl (single isomer, unassigned) [Ex 16-83, 4-[4-[[(1R,2R) or (1S,2S)-2-aminocyclobutyl]amino]butylamino]-5-chloro-2-fluoro-N-(1,2,4-thiadiazol-5-yl)benzenesulfonamide]
pIC50 [1]: 8.33 | ratio of Nav 1.7 potency:Nav 1.5 potency [2]: > 7020

O=S(=O)(Nc1nccs1)c1cc(Cl)c(NCCCCNC[C@@H]2CCCCN2)cc1F [Ex 1-04, 5-chloro-2-fluoro-4-[(4-{[(2S)-piperidin-2-ylmethyl]amino}butyl)amino]-N-1,3-thiazol-2-yl-benzenesulfonamide]
pIC50 [1]: 8.02 | ratio of Nav 1.7 potency:Nav 1.5 potency [2]: > 3440 | ratio of Nav 1.7 potency:Nav 1.5 potency ([2]; listed as Ex1-04): 3440

N[C@H]1CCCC[C@@H]1NCCCCNc1cc(F)c(S(=O)(=O)Nc2nccs2)cc1Cl [Ex 1-07, 4-[(4-{[(1S,2S)-2-amino-cyclohexyl]amino}butyl)-amino]-5-chloro-2-fluoro-N-1,3-thiazol-2-yl-benzenesulfonamide]
pIC50 [1]: 7.74 | ratio of Nav 1.7 potency:Nav 1.5 potency [2]: > 1800

C[C@H](NCCCCNc1cc(F)c(S(=O)(=O)Nc2nccs2)cc1Cl)[C@@H]1CCCN1 [Ex 1-27, 5-chloro-2-fluoro-4-{[4-({(1S)-1-[(2S)-pyrrolidin-2-yl]ethyl}amino)butyl]-amino}-N-1,3-thiazol-2-yl-benzenesulfonamide]
pIC50 [1]: 7.51 | ratio of Nav 1.7 potency:Nav 1.5 potency [2]: > 1070

N[C@@H]1CCCC[C@H]1NCCCCNc1cc(F)c(S(=O)(=O)Nc2nccs2)cc1Cl [Ex 1-28, 4-[(4-{[(1R,2R)-2-aminocyclohexyl]amino}butyl)amino]-5-chloro-2-fluoro-N-1,3-thiazol-2-ylbenzenesulfonamide]
pIC50 [1]: 8.08 | ratio of Nav 1.7 potency:Nav 1.5 potency [2]: > 3930

N[C@@H]1CCC[C@@H]1NCCCCNc1cc(F)c(S(=O)(=O)Nc2nccs2)cc1Cl [Ex 1-29, 4-[(4-{[(1S,2R)-2-aminocyclopentyl]amino}butyl)amino]-5-chloro-2-fluoro-N-1,3-thiazol-2-ylbenzenesulfonamide]
pIC50 [1]: 7.28 | ratio of Nav 1.7 potency:Nav 1.5 potency [2]: > 635

O=S(=O)(Nc1ncns1)c1cc(F)c(NCCCCNC[C@@H]2CCCN2)cc1F [Ex 7-7, 2,5-difluoro-4-[(4-{[(2S)-pyrrolidin-2-ylmethyl]amino}butyl)amino]-N-1,2,4-thiadiazol-5-ylbenzenesulfonamide]
pIC50 [1]: 7.10 | ratio of Nav 1.7 potency:Nav 1.5 potency [2]: > 410

N[C@@H]1CCC[C@H]1NCCCCNc1cc(F)c(S(=O)(=O)Nc2ncns2)cc1Cl [Ex 12-07, 4-[(4-{[(1R,2R)-2-aminocyclo-pentyl]amino}butyl)amino]-5-chloro-2-fluoro-N-1,2,4-thiadiazol-5-yl-benzene-sulfonamide]
pIC50 [1]: 8.22 | ratio of Nav 1.7 potency:Nav 1.5 potency [2]: > 5500

N[C@@H]1CCC[C@H]1NCCCCNc1cc(F)c(S(=O)(=O)Nc2ncc(F)s2)cc1Cl [Ex 16-05, 4-[(4-{[(1R,2R)-2-aminocyclopentyl]-amino}-butyl)-amino]-5-chloro-2-fluoro-N-(5-fluoro-1,3-thiazol-2-yl)-benzene-sulfonamide]
pIC50 [1]: 8.30 | ratio of Nav 1.7 potency:Nav 1.5 potency [2]: 3400

C[C@@H](N)CNCCCCNc1cc(F)c(S(=O)(=O)Nc2ncc(F)s2)cc1Cl [Ex 16-06, 4-[(4-{[(1R,2R)-2-aminopropyl]amino}-butyl)amino]-5-chloro-2-fluoro-N-(5-fluoro-1,3-thiazol-2-yl)benzene-sulfonamide]
pIC50 [1]: 8.09 | ratio of Nav 1.7 potency:Nav 1.5 potency [2]: > 4070

N[C@@H]1CCC[C@H]1NCCCCNc1cc(F)c(S(=O)(=O)Nc2nccs2)cc1Cl [Ex 16-09]
pIC50 [1]: 8.04 | ratio of Nav 1.7 potency:Nav 1.5 potency [2]: > 3590

C[C@H](N)CNCCCCNc1cc(F)c(S(=O)(=O)Nc2nccs2)cc1Cl [Ex 16-12, 4-[(4-{[(2S)-2-aminopropyl]-amino}butyl)amino]-5-chloro-2-fluoro-N-1,3-thiazol-2-yl-benzene-sulfonamide]
pIC50 [1]: 7.89 | ratio of Nav 1.7 potency:Nav 1.5 potency [2]: > 2540

O=S(=O)(Nc1ncc(F)s1)c1cc(Cl)c(NCCCCNC[C@H]2CCCN2)cc1F [Ex 16-13, 5-chloro-2-fluoro-N-(5-fluoro-1,3-thiazol-2-yl)-4-[(4-{[(2R)-pyrrolidin-2-yl-methyl]amino}-butyl)-amino] benzenesulfonamide]
pIC50 [1]: 7.92 | ratio of Nav 1.7 potency:Nav 1.5 potency [2]: 2538

O=S(=O)(Nc1nccs1)c1cc(Cl)c(NCCCCNCC[C@H]2CCCN2)cc1F [Ex 16-14, 5-chloro-2-fluoro-4-{[4-({2-[(2R)-pyrrolidin-2-yl]ethyl}-amino)-butyl]-amino}-N-1,3-thiazol-2-yl-benzenesulfonamide]
pIC50 [1]: 7.41 | ratio of Nav 1.7 potency:Nav 1.5 potency [2]: > 846

O=S(=O)(Nc1ncc(F)s1)c1cc(Cl)c(NCCCCNC[C@H]2CCCCN2)cc1F [Ex 16-16, 5-chloro-2-fluoro-N-(5-fluoro-1,3-thiazol-2-yl)-4-[(4-{[(2R)-piperidin-2-yl-methyl]amino}butyl)-amino] benzenesulfonamide]
pIC50 [1]: 8.06 | ratio of Nav 1.7 potency:Nav 1.5 potency [2]: > 3800

O=S(=O)(Nc1ncns1)c1cc(Cl)c(NCCCCNC[C@H]2CCCN2)cc1F [Ex 16-17, 5-chloro-2-fluoro-4-[(4-{[(2R)-pyrrolidin-2-yl-methyl]amino}butyl)amino]-N-1,2,4-thiadiazol-5-yl-benzenesulfonamide]
pIC50 [1]: 8.08 | ratio of Nav 1.7 potency:Nav 1.5 potency [2]: > 3980

O=S(=O)(Nc1ncns1)c1cc(Cl)c(NCCCCNCC[C@H]2CCCN2)cc1F [Ex 16-20, 5-chloro-2-fluoro-4-{[4-({2-[(2R)-pyrrolidin-2-yl]ethyl}-amino)butyl]amino}-N-1,2,4-thiadiazol-5-ylbenzene-sulfonamide]
pIC50 [1]: 7.10 | ratio of Nav 1.7 potency:Nav 1.5 potency [2]: > 412

O=S(=O)(Nc1ncns1)c1cc(Cl)c(NCCCCNCC[C@@H]2CCCN2)cc1F [Ex 16-21, 5-chloro-2-fluoro-4-{[4-({2-[(2S)-pyrrolidin-2-yl]ethyl}-amino)butyl]amino}-N-1,2,4-thiadiazol-5-ylbenzene-sulfonamide]
pIC50 [1]: 7.51 | ratio of Nav 1.7 potency:Nav 1.5 potency [2]: > 1046

O=S(=O)(Nc1ncc(F)s1)c1cc(Cl)c(NCCCCNC2CNC2)cc1F [Ex 16-22, 4-{[4-(azetidin-3-ylamino)-butyl]amino}-5-chloro-2-fluoro-N-(5-fluoro-1,3-thiazol-2-yl)benzene-sulfonamide]
pIC50 [1]: 7.42 | ratio of Nav 1.7 potency:Nav 1.5 potency [2]: > 868

O=S(=O)(Nc1ncc(F)s1)c1cc(Cl)c(NCCCCNCC[C@@H]2CCCN2)cc1F [Ex 16-24, 5-chloro-2-fluoro-N-(5-fluoro-1,3-thiazol-2-yl)-4-{[4-({2-[(2S)-pyrrolidin-2-yl]ethyl}amino)butyl]amino} benzenesulfonamide]
pIC50 [1]: 7.68 | ratio of Nav 1.7 potency:Nav 1.5 potency [2]: > 1571

C[C@H](CN)NCCCCNc1cc(F)c(S(=O)(=O)Nc2ncns2)cc1Br [Ex 16-78, 4-[(4-{[(1R)-2-amino-1-methylethyl]amino}butyl)amino]-5-bromo-2-fluoro-N-1,2,4-thiadiazol-5-ylbenzenesulfonamide]
pIC50 [1]: 7.92

NC1(CNCCCCNc2cc(F)c(S(=O)(=O)Nc3ncns3)cc2Br)CC1 [Ex 16-89, 4-[4-[(1-aminocyclopropyl)methylamino]butylamino]-5-bromo-2-fluoro-N-(1,2,4-thiadiazol-5-yl)benzenesulfonamide]
pIC50 [1]: 7.92

CNCCNCCCCNc1cc(F)c(S(=O)(=O)Nc2ncns2)cc1Br [Ex 16-90, 5-bromo-2-fluoro-4-[4-[2-(methylamino)ethylamino]butylamino]-N-(1,2,4-thiadiazol-5-yl)benzenesulfonamide]
pIC50 [1]: 8.29

CNCCCNCCCCNc1cc(F)c(S(=O)(=O)Nc2ncns2)cc1Br [Ex 16-91, 5-bromo-2-fluoro-4-[4-[3-(methylamino)propylamino]butylamino]-N-(1,2,4-thiadiazol-5-yl)benzenesulfonamide]
pIC50 [1]: 7.85

CC1(NCCCCNc2cc(F)c(S(=O)(=O)Nc3ncns3)cc2Br)CCNC1 (centres unmarked) [Ex 16-96, 5-bromo-2-fluoro-4-[4-[(3-methylpyrrolidin-3-yl)amino]butylamino]-N-(1,2,4-thiadiazol-5-yl)benzenesulfonamide]
pIC50 [1]: 7.82

NCCCNCCCCNc1cc(F)c(S(=O)(=O)Nc2ncns2)cc1Br [Ex 16-97, 4-[4-(3-aminopropylamino)butylamino]-5-bromo-2-fluoro-N-(1,2,4-thiadiazol-5-yl)benzenesulfonamide]
pIC50 [1]: 7.74

O=S(=O)(Nc1ncns1)c1cc(Br)c(NCCCCN[C@H]2CCNC2)cc1F [Ex 16-100, (S)-5-bromo-2-fluoro-4-((4-(pyrrolidin-3-ylamino)butyl)amino)-N-(1,2,4-thiadiazol-5-yl)benzenesulfonamide]
pIC50 [1]: 7.82
